{"source": "patent US20040265979A1", "about": "“Novel macrophage foam cell formation inhibitor fka-25 and process for producing the same” (priority 2004, published 2004)", "key": {"[1]": {"tested_on": "Macrophages isolated from mice peritoneum", "assay": "Formation of cholesteryl ester and lipid droplet in mouse intraperitoneal macrophages ([1-14C]oleic acid incorporation, TLC)", "format": "cell-based", "conditions": "Macrophage, mouse peritoneal macrophages, liposome + [1-14C]oleic acid", "source_text": "Inhibitory action of FKA-25 substance of the present invention against intraperitoneal formation of cholesteryl ester and lipid droplet in mice is explained as follows.\nFormation of cholesteryl ester and lipid droplet in mice in the intraperitoneal macrophage was examined according to the method of Namatame et al. (J. Biochem. 125, 319-327, 1999).\nMacrophages isolated from mice peritoneum were suspended in Dulbecco modified Eagle's medium containing 6.8% lipoprotein deficient serum (6.8% LPDS-DMEM) 2.0×10^6 cells/ml, and plated each 0.25 ml into 48 well microplate (Corning Inc.) or slide chamber (Nunc Inc.).\nThe plate was incubated in 5% carbon dioxide incubator at 37° C. for 2 hours, then cells without attachment were removed by washing with Hank's solution. After washing, cells were incubated with 6.8% LPDS-DMEM for 1 hour, and FKA-25 substance (2.5 μl methanol), liposome (a composition consisting of phosphatidylcholine/phosphatidylserine/dicetylphosphate/cholesterol=10:10:2:15 (n mol) in 0.3 M glucose 10 μl) and [1-^14C]oleic acid (5 μl, 0.05 μCi, 1 nmol) were added, then incubated for 14 hours.\nCultured supernatant was removed off and intracellular neutral lipid was extracted twice by adding hexane 0.6 ml and isopropanol 0.4 ml. […] The separated [^14C]cholesteryl oleate and [^14C]triacylglycerol were quantitatively measured by using radio scanner (Ambis Inc., the U.S.). […]"}, "[2]": {"assay": "Physico-chemical properties: solubility in solvents, acidity/basicity", "format": "physicochemical", "source_text": "Physico-chemical properties of FKA-25 substance of the present invention are as follows."}}, "data": [{"smiles": "CC(C)=CCc1c(C(O)C2OC2(C)C)ccc2[nH]c3c(c12)CC1CCC2(O)C(C)(C)C(=O)CCC2(C)C31C", "note": "(centres unmarked) [FKA-25 substance]", "values": [{"measurement": "inhibition at 3.2 µM", "setting": "[1]; at 3.2 μM, 14 hours, read-out: inhibition of the formation of triacylglycerol", "value": "~50", "unit": "%"}, {"measurement": "IC50", "setting": "[1]; incubated for 14 hours, read-out: IC50, inhibition of the formation of [14C]cholesteryl oleate", "value": 4, "unit": "µM"}, {"measurement": "Differentiation from acidity, neutrality and basicity", "setting": "[2]", "value": "weak basic substance"}, {"measurement": "Solubility in solvents", "setting": "[2]; in methanol, acetone, chloroform and ethyl acetate", "value": "Soluble"}, {"measurement": "Solubility in solvents", "setting": "[2]; in water and hexane", "value": "slightly soluble"}]}]}
